According to patent publication US12714707B2, “Combination cancer therapy using CHK inhibitor” (SHANGHAI HUAYU BIOTECHNOLOGY CO., LTD., priority 2020, dated 2026):

Tests used:
Type in all cases: cell-based
[1] = test system: MCF7F cells (fulvestrant-resistant); assay: MTT cell viability / cell death rate, MCF7F cells (Example 1); conditions: 48 hours; for Cell Death Rate/% mean: mean of triplicate; for Cell Death Rate/% 1: replicate 1; for Cell Death Rate/% 2: replicate 2; for Cell Death Rate/% 3: replicate 3
Description: MCF7F cells (fulvestrant-resistant) were maintained at 37° C. in 5% CO2 in RPMI 1640 medium (10-040-CV, Coming cellgro) supplemented with 10% FBS (10270-106, GIBCO), 1% penicillin and 1% streptomycin, and used before the 10th subculture, wherein these cells were in house prepared by culturing MCF7 cells (TCHu 74, National Collection of Authenticated Cell Cultures) in medium containing 1 μM fulvestrant for approximately 18 months (Hong Liu et al., Cooperative effect of gefitinib and fumitremorgin c on cell growth and chemosensitivity in estrogen receptor alpha negative fulvestrant-resistant MCF-7 cells. Int J Oncol. 2006. 29(5):1237-1246).
(§1) Briefly, the MCF7F cells were cultured at 37° C. in 5% CO2 in RPMI 1640 medium supplemented with i) 10% FBS, ii) 1% penicillin and 1% streptomycin, and iii) AZD2281 (final concentration at 800 nM), ABT888 (final concentration at 800 nM), Compound 605B (final concentration at 25 nM), 605B+AZD2281 (final concentration at 25 nM and 800 nM), 605B+ABT888 (final concentration at 25 nM and 800 nM), or PBS (vehicle), for 48 hours. Then, cell viability was determined by a MTT assay. The test was done in triplicate.
(§2) Cell death rate was calculated by the following formula. Cell death rate=[1−(ODtest[…])]×100%
(§3) Cell death rates were analyzed using student's t-test, and group differences were deemed statistically significant when the p-value was lower than 0.05. Zheng-Jun Jin's Q value was calculated using the formula Q=EA+B/(EA+EB−EA×EB) to assess the combined effect of Compound 605B and the PARP inhibitor, wherein EA+B, EA, and EB referred to the cell death rates caused by the combined treatment, 605B treatment and PARP inhibitor treatment, respectively. A Q value higher than 1.15 meant a synergistic […] effect.

[2] = test system: BT474; assay: MTT cell death rate, BT474 cells, 605B with AZD2281 (Example 2); conditions: 48 hours; for Cell Death Rate/% 1: replicate 1; for Cell Death Rate/% 2: replicate 2; for Cell Death Rate/% 3: replicate 3
Description: as §2, §3
(§4) The combined use of Compound 605 and AZD2281 was further tested in other breast cancer cell lines, including BT474 (TCHu 143, National collection of Authenticated Cell Cultures), MCF7 (TCHu 74, National collection of Authenticated Cell Cultures), and MMTV-HER2 (a gift from Dr. Liguang-L, Shanghai Institute of Materia Medica, Chinese Academy of Sciences).
as §1, with “these” for “the MCF7F”, “and” for “and 1%”, “AZD2281” for “AZD2281 (final concentration at 800 nM), ABT888”, “nM),” for “nM), 605B+ABT888 (final concentration at 25 nM and 800 nM),”, “PBS,” for “PBS (vehicle),”

[3] = test system: MCF7; assay: MTT cell death rate, MCF7 cells, 605B with AZD2281 (Example 2); conditions: 48 hours; for Cell Death Rate/% 1: replicate 1; for Cell Death Rate/% 2: replicate 2; for Cell Death Rate/% 3: replicate 3
Description: as §2, §3, §4
as §1, with “these” for “the MCF7F”, “and” for “and 1%”, “AZD2281” for “AZD2281 (final concentration at 800 nM), ABT888”, “nM),” for “nM), 605B+ABT888 (final concentration at 25 nM and 800 nM),”, “PBS,” for “PBS (vehicle),”

[4] = test system: MMTV-HER2; assay: MTT cell death rate, MMTV-HER2 cells, 605B with AZD2281 (Example 2); conditions: 48 hours; for Cell Death Rate/% 1: replicate 1; for Cell Death Rate/% 2: replicate 2; for Cell Death Rate/% 3: replicate 3
Description: as §2, §3, §4
as §1, with “these” for “the MCF7F”, “and” for “and 1%”, “AZD2281” for “AZD2281 (final concentration at 800 nM), ABT888”, “nM),” for “nM), 605B+ABT888 (final concentration at 25 nM and 800 nM),”, “PBS,” for “PBS (vehicle),”

[5] = test system: MMTV-HER2; assay: MTT cell death rate, MMTV-HER2 cells, 605B with Rucaparib (Example 3); conditions: 48 hours; for Cell Death Rate/% 1: replicate 1; for Cell Death Rate/% 2: replicate 2; for Cell Death Rate/% 3: replicate 3
Description: as §2, §3
(§5) Compound 605B was tested with another PARP inhibitor, AG014699 (Rucaparib), for the inhibitory effects on breast tumor cell lines, including BT474, MCF7, and MMTV-HER2.
(§6) Briefly, these cells were cultured at 37° C. in 5% CO2 in RPMI 1640 medium supplemented with i) 10% FBS, ii) 1% penicillin and 1% streptomycin, and iii) AZD2281 (final concentration at 800 nM), Compound 605B (final concentration at 25 nM), 605B+AZD2281 (final concentration at 25 nM and 800 nM), or PBS, for 48 hours. Then, cell viability was determined by the MTT assay. The test was done in triplicate.

[6] = test system: BT474; assay: MTT cell death rate, BT474 cells, 605B with Rucaparib (Example 3); conditions: 48 hours; for Cell Death Rate/% 1: replicate 1; for Cell Death Rate/% 2: replicate 2; for Cell Death Rate/% 3: replicate 3
Description: as §2, §3, §5, §6

[7] = test system: MCF7; assay: MTT cell death rate, MCF7 cells, 605B with Rucaparib (Example 3); conditions: 48 hours; for Cell Death Rate/% 1: replicate 1; for Cell Death Rate/% 2: replicate 2; for Cell Death Rate/% 3: replicate 3
Description: as §2, §3, §5, §6

**Q.** Which “Cell Death Rate/% mean” value ([1]; final concentration 800 nM) does the source give for C[C@]1(c2nc3c(C(N)=O)cccc3[nH]2)CCCN1 [ABT888, Veliparib] here?
**A.** The value was 4.63%.

**Q.** What about the “Cell Death Rate/% 1” value ([1]; final concentration 800 nM) of the same compound?
**A.** Its value is 4.69%.

**Q.** What about the “Cell Death Rate/% 2” value ([1]; final concentration 800 nM) of the same compound?
**A.** Its value is 4.28%.

**Q.** What about the “Cell Death Rate/% 3” value ([1]; final concentration 800 nM) of the same compound?
**A.** Its value is 4.93%.

**Q.** O=C(c1cc(Cc2n[nH]c(=O)c3ccccc23)ccc1F)N1CCN(C(=O)C2CC2)CC1 [AZD2281, Olaparib] was tested. Which “Cell Death Rate/% mean” value ([2]; final concentration 800 nM) did it give?
**A.** The value was 5.28%.

**Q.** And the “Cell Death Rate/% 1” value ([2]; final concentration 800 nM)?
**A.** The value was 5.47%.

**Q.** And the “Cell Death Rate/% 2” value ([2]; final concentration 800 nM)?
**A.** Its value is 5.1%.

**Q.** What about the “Cell Death Rate/% 3” value ([2]; final concentration 800 nM) of the same compound?
**A.** Its value is 5.27%.

**Q.** And the “Cell Death Rate/% mean” value ([1]; final concentration 800 nM)?
**A.** Its value is 5.55%.

**Q.** What about the “Cell Death Rate/% 1” value ([1]; final concentration 800 nM) of the same compound?
**A.** Its value is 5.86%.

**Q.** What about the “Cell Death Rate/% 2” value ([1]; final concentration 800 nM) of the same compound?
**A.** Its value is 5.42%.

**Q.** And the “Cell Death Rate/% 3” value ([1]; final concentration 800 nM)?
**A.** The value was 5.37%.

**Q.** And the “Cell Death Rate/% mean” value ([3]; final concentration 800 nM)?
**A.** The value was 5.34%.

**Q.** What about the “Cell Death Rate/% 1” value ([3]; final concentration 800 nM) of the same compound?
**A.** The value was 5.34%.

**Q.** And the “Cell Death Rate/% 2” value ([3]; final concentration 800 nM)?
**A.** Its value is 5.39%.

**Q.** And the “Cell Death Rate/% 3” value ([3]; final concentration 800 nM)?
**A.** The value was 5.66%.

**Q.** And the “Cell Death Rate/% mean” value ([4]; final concentration 800 nM)?
**A.** Its value is 8.28%.

**Q.** What about the “Cell Death Rate/% 1” value ([4]; final concentration 800 nM) of the same compound?
**A.** Its value is 8.34%.

**Q.** And the “Cell Death Rate/% 2” value ([4]; final concentration 800 nM)?
**A.** The value was 8.46%.

**Q.** And the “Cell Death Rate/% 3” value ([4]; final concentration 800 nM)?
**A.** Its value is 8.05%.

**Q.** NC(=O)c1nnc(N[C@H]2CCCNC2)c2cc(-c3cccc(F)c3)sc12 [Compound 605B, 2-(3-fluorophenyl)-4-(3-piperidineamino)-thieno[2,3-d]pyridazine-7-carboxylic acid amide] was tested. Which “Cell Death Rate/% mean” value ([5]; final concentration 25 nM) did it give?
**A.** Its value is 9.11%.

**Q.** What about the “Cell Death Rate/% 1” value ([5]; final concentration 25 nM) of the same compound?
**A.** Its value is 9.13%.

**Q.** And the “Cell Death Rate/% 2” value ([5]; final concentration 25 nM)?
**A.** Its value is 8.90%.

**Q.** And the “Cell Death Rate/% 3” value ([5]; final concentration 25 nM)?
**A.** The value was 9.29%.

**Q.** What about the “Cell Death Rate/% mean” value ([2]; final concentration 25 nM) of the same compound?
**A.** The value was 7.67%.

**Q.** What about the “Cell Death Rate/% 1” value ([2]; final concentration 25 nM) of the same compound?
**A.** Its value is 7.72%.

**Q.** And the “Cell Death Rate/% 2” value ([2]; final concentration 25 nM)?
**A.** Its value is 7.45%.

**Q.** And the “Cell Death Rate/% 3” value ([2]; final concentration 25 nM)?
**A.** The value was 7.83%.

**Q.** What about the “inhibitory effects on cells / cell death rates (in words)” value [1] of the same compound?
**A.** The value was “little inhibitory effects”.

**Q.** What about the “Cell Death Rate/% mean” value ([1]; final concentration 25 nM) of the same compound?
**A.** The value was 4.97%.

**Q.** And the “Cell Death Rate/% 1” value ([1]; final concentration 25 nM)?
**A.** Its value is 5.03%.

**Q.** What about the “Cell Death Rate/% 2” value ([1]; final concentration 25 nM) of the same compound?
**A.** The value was 5.22%.

**Q.** And the “Cell Death Rate/% 3” value ([1]; final concentration 25 nM)?
**A.** The value was 4.67%.

**Q.** And the “Cell Death Rate/% mean” value ([3]; final concentration 25 nM)?
**A.** The value was 6.51%.

**Q.** And the “Cell Death Rate/% 1” value ([3]; final concentration 25 nM)?
**A.** Its value is 6.51%.

**Q.** What about the “Cell Death Rate/% 2” value ([3]; final concentration 25 nM) of the same compound?
**A.** The value was 6.38%.

**Q.** What about the “Cell Death Rate/% 3” value ([3]; final concentration 25 nM) of the same compound?
**A.** The value was 6.72%.

**Q.** What about the “Cell Death Rate/% mean” value ([4]; final concentration 25 nM) of the same compound?
**A.** Its value is 8.50%.

**Q.** And the “Cell Death Rate/% 1” value ([4]; final concentration 25 nM)?
**A.** Its value is 8.69%.

**Q.** And the “Cell Death Rate/% 2” value ([4]; final concentration 25 nM)?
**A.** The value was 8.33%.

**Q.** What about the “Cell Death Rate/% 3” value ([4]; final concentration 25 nM) of the same compound?
**A.** Its value is 8.47%.

**Q.** And the “Cell Death Rate/% mean” value ([6]; final concentration 25 nM)?
**A.** Its value is 8.47%.

**Q.** And the “Cell Death Rate/% 1” value ([6]; final concentration 25 nM)?
**A.** Its value is 8.49%.

**Q.** What about the “Cell Death Rate/% 2” value ([6]; final concentration 25 nM) of the same compound?
**A.** The value was 8.24%.

**Q.** And the “Cell Death Rate/% 3” value ([6]; final concentration 25 nM)?
**A.** Its value is 8.67%.

**Q.** And the “Cell Death Rate/% mean” value ([7]; final concentration 25 nM)?
**A.** The value was 8.41%.

**Q.** What about the “Cell Death Rate/% 1” value ([7]; final concentration 25 nM) of the same compound?
**A.** The value was 8.5%.

**Q.** What about the “Cell Death Rate/% 2” value ([7]; final concentration 25 nM) of the same compound?
**A.** The value was 8.39%.

**Q.** What about the “Cell Death Rate/% 3” value ([7]; final concentration 25 nM) of the same compound?
**A.** The value was 8.33%.

**Q.** Which results are given for CNCc1ccc(-c2[nH]c3cc(F)cc4c3c2CCNC4=O)cc1 [Rucaparib]?
**A.** Cell Death Rate/% mean ([5]; final concentration 800 nM): 7.50%; Cell Death Rate/% 1 ([5]; final concentration 800 nM): 7.54%; Cell Death Rate/% 2 ([5]; final concentration 800 nM): 7.68%; Cell Death Rate/% 3 ([5]; final concentration 800 nM): 7.29%; Cell Death Rate/% mean ([6]; final concentration 800 nM): 7.60%; Cell Death Rate/% 1 ([6]; final concentration 800 nM): 7.63%; Cell Death Rate/% 2 ([6]; final concentration 800 nM): 7.77%; Cell Death Rate/% 3 ([6]; final concentration 800 nM): 7.39%; Cell Death Rate/% mean ([7]; final concentration 800 nM): 6.66%; Cell Death Rate/% 1 ([7]; final concentration 800 nM): 6.88%; Cell Death Rate/% 2 ([7]; final concentration 800 nM): 6.46%; Cell Death Rate/% 3 ([7]; final concentration 800 nM): 6.65%
